For one test, the target named is T. cruzi DHFR (tcDHFR) (Trypanosoma cruzi, UniProt Q27793). Kind of test: biochemical. Particulars: for Average DHFR selectivity (h/tc): hDHFR IC50/tcDHFR IC50.
A further test deals with T1, hDHFR (Homo sapiens, UniProt P00374).
T1 sequence (P00374 1-187): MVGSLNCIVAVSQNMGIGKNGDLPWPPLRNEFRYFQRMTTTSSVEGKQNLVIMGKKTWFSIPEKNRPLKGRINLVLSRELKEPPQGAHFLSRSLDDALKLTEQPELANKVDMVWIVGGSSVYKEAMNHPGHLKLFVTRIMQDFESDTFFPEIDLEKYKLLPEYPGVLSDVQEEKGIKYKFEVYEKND
Type of test: biochemical.

Another test has as its target T2, T. gondii DHFR (tgDHFR) (Toxoplasma gondii, UniProt Q07422).
T2 sequence (Q07422 1-610): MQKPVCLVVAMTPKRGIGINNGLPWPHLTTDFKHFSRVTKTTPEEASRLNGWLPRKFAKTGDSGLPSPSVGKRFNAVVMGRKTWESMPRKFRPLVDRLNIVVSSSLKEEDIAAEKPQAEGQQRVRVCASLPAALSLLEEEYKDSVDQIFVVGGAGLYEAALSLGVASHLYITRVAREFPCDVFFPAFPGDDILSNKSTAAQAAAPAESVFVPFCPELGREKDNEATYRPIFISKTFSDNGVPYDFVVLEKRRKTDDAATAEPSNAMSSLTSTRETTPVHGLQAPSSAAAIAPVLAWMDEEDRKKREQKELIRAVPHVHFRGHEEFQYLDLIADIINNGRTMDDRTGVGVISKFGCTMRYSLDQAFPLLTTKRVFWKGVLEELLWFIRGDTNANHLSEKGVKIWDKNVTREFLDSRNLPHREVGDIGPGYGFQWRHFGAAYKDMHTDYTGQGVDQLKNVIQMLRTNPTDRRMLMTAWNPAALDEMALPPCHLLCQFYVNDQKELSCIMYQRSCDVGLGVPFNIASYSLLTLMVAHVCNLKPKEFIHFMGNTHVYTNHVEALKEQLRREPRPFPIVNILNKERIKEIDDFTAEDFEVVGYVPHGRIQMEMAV
The test can be described thus: biochemical.

[1] abbreviates: Table 17, pIC50 = -log10 IC50, at least three replicates, read-out: tcDHFR pIC50-DHFR primary assay (converted).
[2] abbreviates: Table 17, pIC50 = -log10 IC50, at least three replicates, read-out: hDHFR pIC50-DHFR primary assay (converted).
Setting [3] is: Table 16, pIC50 = -log10 IC50, at least three replicates, read-out: hDHFR pIC50-DHFR primary assay (converted).

The source of these data is US20200270233A1, “DHFR INHIBITORS, COMPOSITIONS, AND METHODS RELATED THERETO” (Vyera Pharmaceuticais LLC, priority 2017, published 2020).

Structures are written as SMILES. Where two headings read alike, the source gives them in different places.

Chain of T. cruzi DHFR (tcDHFR) (Q27793 whole entry): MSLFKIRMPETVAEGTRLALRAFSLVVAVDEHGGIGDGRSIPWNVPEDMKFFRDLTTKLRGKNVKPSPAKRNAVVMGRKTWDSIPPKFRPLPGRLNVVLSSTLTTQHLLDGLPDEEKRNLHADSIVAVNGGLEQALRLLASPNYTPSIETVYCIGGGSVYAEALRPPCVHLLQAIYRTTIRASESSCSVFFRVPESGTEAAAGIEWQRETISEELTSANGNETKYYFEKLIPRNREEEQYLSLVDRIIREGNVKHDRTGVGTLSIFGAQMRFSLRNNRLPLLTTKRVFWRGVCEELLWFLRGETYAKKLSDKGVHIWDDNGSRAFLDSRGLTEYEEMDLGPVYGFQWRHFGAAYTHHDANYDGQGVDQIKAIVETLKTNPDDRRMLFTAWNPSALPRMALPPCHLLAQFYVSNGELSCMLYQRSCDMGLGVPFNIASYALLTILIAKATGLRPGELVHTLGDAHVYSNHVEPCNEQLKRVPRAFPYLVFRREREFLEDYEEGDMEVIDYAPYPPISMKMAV

In the case of `Nc1ncc(N2CCN(c3cncc(Br)c3)CC2)c(N)n1` [Compound 145, 5-(4-(5-bromopyridin-3-yl)piperazin-1-yl)pyrimidine-2,4-diamine], the “Average DHFR selectivity (h/tc)” value on T. cruzi DHFR (tcDHFR) (Table 17) amounted to 56.7. The IC50 at T. cruzi DHFR (tcDHFR) (setting [1]) was 21.6 nM; on hDHFR (setting [2]), 1170 nM.
Regarding `Nc1ncc(N2CCN(c3ccc(F)cc3)CC2)c(N)n1` [Compound 116, 5-(4-(4-fluorophenyl)piperazin-1-yl)pyrimidine-2,4-diamine], the IC50 against T. cruzi DHFR (tcDHFR) is 50.1 nM; on hDHFR (setting [2]) it was 5010 nM.
For `Nc1ncc(N2CCN(c3cnc(C(F)(F)F)nc3)CC2)c(N)n1` [Compound 142, 5-(4-(2-(trifluoromethyl)pyrimidin-5-yl)piperazin-1-yl)pyrimidine-2,4-diamine], on T. cruzi DHFR (tcDHFR) (Table 17), the “Average DHFR selectivity (h/tc)” value was 206.5. Moreover, the IC50 on T. cruzi DHFR (tcDHFR) (setting [1]) is 38.5 nM; at hDHFR (setting [2]), 7630 nM.
On to `Nc1ncc(N2CCN(c3cc(Cl)ccn3)CC2)c(N)n1` [Compound 148, 5-(4-(4-chloropyridin-2-yl)piperazin-1-yl)pyrimidine-2,4-diamine], for which the “Average DHFR selectivity (h/tc)” value on T. cruzi DHFR (tcDHFR) (Table 17) worked out at 94.81. The IC50 at T. cruzi DHFR (tcDHFR) (setting [1]) was 22.9 nM; at hDHFR (setting [2]), 2190 nM.
For the molecule `Nc1ncc(N2CCN(c3cccc(C4CCCOC4)c3)CC2)c(N)n1` (stereo not shown) [Compound 179], the “Average DHFR selectivity (h/tc)” value at T. cruzi DHFR (tcDHFR) (Table 17) amounted to 17.495. Moreover, the IC50 was 28.8 nM at T. cruzi DHFR (tcDHFR) (setting [1]) and 484 nM at hDHFR (setting [2]).
As for `Nc1ncc(N2CCN(c3ccc(C(F)(F)F)cc3)CC2)c(N)n1` [Compound 115, 5-(4-(4-(trifluoromethyl)phenyl)piperazin-1-yl)pyrimidine-2,4-diamine], the results for the IC50 against T. cruzi DHFR (tcDHFR) and against hDHFR were 6.17 nM and 813 nM, respectively.
Consider `Nc1ncc(N2CCN(c3ccc(C4=CCOCC4)cc3)CC2)c(N)n1` [Compound 191, 5-(4-(4-(3,6-dihydro-2H-pyran-4-yl)phenyl)piperazin-1-yl)pyrimidine-2,4-diamine], for which the “Average DHFR selectivity (h/tc)” value at T. cruzi DHFR (tcDHFR) (Table 17) was found to be 25.16. Further, the results for the IC50 at T. cruzi DHFR (tcDHFR) (setting [1]) and at hDHFR (setting [2]) were 2.82 nM and 68.4 nM, respectively.
The corresponding values for `Nc1ncc(N2CCN(c3ccc(F)nc3)CC2)c(N)n1` [Compound 156, 5-(4-(6-fluoropyridin-3-yl)piperazin-1-yl)pyrimidine-2,4-diamine] are 60.75, 61.7 nM and 3720 nM.
The matching figures for `COc1ccc(N2CCN(c3cnc(N)nc3N)CC2)cn1` [Compound 188, 5-(4-(6-methoxypyridin-3-yl)piperazin-1-yl)pyrimidine-2,4-diamine]: 209.762, 14 nM and 2690 nM.
The matching figures for `Cc1ccc(N2CCN(c3cnc(N)nc3N)CC2)cn1` [Compound 146, 5-(4-(6-methylpyridin-3-yl)piperazin-1-yl)pyrimidine-2,4-diamine]: 222.395, 33.5 nM and 7410 nM.
On to `Nc1ncc(N2CCN(c3cccc(Cl)n3)CC2)c(N)n1` [Compound 150, 5-(4-(6-chloropyridin-2-yl)piperazin-1-yl)pyrimidine-2,4-diamine], for which, at T. cruzi DHFR (tcDHFR) (Table 17), the “Average DHFR selectivity (h/tc)” value came out at 59.955. The IC50 on T. cruzi DHFR (tcDHFR) (setting [1]) was 10.8 nM; on hDHFR (setting [2]) it was 653 nM.
Regarding `CCc1nc(N)nc(N)c1N1CCN(c2cccc(OC)c2)CC1` [Compound 33, 6-ethyl-5-(4-(3-methoxyphenyl)piperazin-1-yl)pyrimidine-2,4-diamine], the IC50 was 4.37 nM at T. gondii DHFR (tgDHFR) and 525 nM at hDHFR (hDHFR pIC50-DHFR primary assay).
As for `CN(Cc1cnc2nc(N)nc(N)c2n1)c1ccc(C(=O)N[C@@H](CCC(=O)O)C(=O)O)cc1` [Methotrexate], at T. cruzi DHFR (tcDHFR), the IC50 was 1.1 nM.
For `Nc1ncc(N2CCN(c3cccc(Br)c3)CC2)c(N)n1` [Compound 11, 5-(4-(3-bromophenyl)piperazin-1-yl)pyrimidine-2,4-diamine], the IC50 on T. gondii DHFR (tgDHFR) was 11.7 nM; on hDHFR (setting [3]), 437 nM.
As for `N#Cc1cccc(-c2cccc(N3CCN(c4cnc(N)nc4N)CC3)c2)c1` [Compound 67], the values for the IC50 against T. gondii DHFR (tgDHFR) and at hDHFR (setting [3]) were 3.89 nM and 302 nM, respectively.
The corresponding values for `CCc1nc(N)nc(N)c1N1CCN(c2cccc(C)c2)CC1` [Compound 31, 6-ethyl-5-(4-(m-tolyl)piperazin-1-yl)pyrimidine-2,4-diamine] are 3.47 nM and 417 nM.
In the case of `CCc1nc(N)nc(N)c1N1CCN(c2ccncc2)CC1` [Compound 36, 6-ethyl-5-(4-(pyridin-4-yl)piperazin-1-yl)pyrimidine-2,4-diamine], the IC50 is 269 nM against T. gondii DHFR (tgDHFR) and 30200 nM on hDHFR (setting [3]).
The matching figures for `CCc1nc(N)nc(N)c1N1CCN(c2ccc(C)cn2)CC1` [Compound 45, 6-ethyl-5-(4-(5-methylpyridin-2-yl)piperazin-1-yl)pyrimidine-2,4-diamine]: 5.89 nM and 794 nM.
The matching figures for `CCCc1nc(N)nc(N)c1N1CCC(c2ccccc2)CC1` [Compound 51, 5-(4-phenylpiperidin-1-yl)-6-propylpyrimidine-2,4-diamine]: 11.7 nM and 2450 nM.
In the case of `CCc1ncc(-c2cccc(N3CCN(c4cnc(N)nc4N)CC3)c2)cn1` [Compound 95], the IC50 at T. gondii DHFR (tgDHFR) was 7.24 nM; on hDHFR (setting [3]), 1580 nM; at hDHFR (Table 18, pIC50 = -log10 IC50, at least three replicates, read-out: hDHFR pIC50-DHFR primary assay (converted)) it was 1410 nM.
With `CC1CN(c2cccc(-c3ccccc3)c2)CCN1c1cnc(N)nc1N` (stereo not drawn) [Compound 27, 5-(4-([1,1′-biphenyl]-3-yl)-2-methylpiperazin-l-yl)pyrimidine-2,4-diamine], the IC50 against T. gondii DHFR (tgDHFR) is 138 nM; at hDHFR (setting [3]) it was 30200 nM.
For `COc1cccc(N2CCN(c3cnc(N)nc3N)CC2)c1` [Compound 9, 5-(4-(3-methoxyphenyl)piperazin-1-yl)pyrimidine-2,4-diamine], the IC50 against T. cruzi DHFR (tcDHFR) was 28.8 nM.
Still for that read-out and setting: the result for `Cc1ccc(N2CCN(c3cnc(N)nc3N)CC2)cc1` [Compound 8, 5-(4-(p-tolyl)piperazin-1-yl)pyrimidine-2,4-diamine] reads 18.2 nM.
With `Nc1ncc(N2CCN(c3ccc(Cl)c(Cl)c3)CC2)c(N)n1` [Compound 1, 5-(4-(3,4-dichlorophenyl)piperazin-1-yl)pyrimidine-2,4-diamine], the IC50 on T. gondii DHFR (tgDHFR) is 13.8 nM; at hDHFR (setting [3]), 75.9 nM.
In the case of `CCc1nc(N)nc(N)c1N1CCN(c2ccccc2)CC1` [Compound 28, 6-ethyl-5-(4-phenylpiperazin-1-yl)pyrimidine-2,4-diamine], the IC50 is 5.75 nM against T. gondii DHFR (tgDHFR) and 1350 nM at hDHFR (setting [3]).
As for `C[C@@H]1CN(c2cnc(N)nc2N)CCN1c1cccc(C2CCOCC2)c1` [Compound 176], on T. gondii DHFR (tgDHFR) (Table 16, hDHFR IC50/tgDHFR IC50), the “Average DHFR selectivity (h/tg)” value is listed as 47.03. The IC50 is 2.29 nM on T. gondii DHFR (tgDHFR) (Table 16, pIC50 = -log10 IC50, at least three replicates, read-out: tgDHFR pIC50-DHFR primary assay (converted)) and 107 nM at hDHFR (setting [3]).
Take `Nc1nc(N)c(N2CCN(c3ccccc3)CC2)c(CC2CC2)n1` [Compound 106]: the IC50 was 27.5 nM at T. gondii DHFR (tgDHFR) and 5890 nM on hDHFR (setting [3]).
As to `Nc1ncc(N2CCC(c3ccccc3)CC2)c(N)n1` [Compound 15, 5-(4-phenylpiperidin-1-yl)pyrimidine-2,4-diamine], the IC50 on T. gondii DHFR (tgDHFR) was 162 nM; at hDHFR (setting [3]), 4070 nM.
For the molecule `CN(C)c1ncc(-c2cccc(N3CCN(c4cnc(N)nc4N)CC3)c2)cn1` [Compound 96], the IC50 was 10 nM against T. gondii DHFR (tgDHFR) and 1150 nM at hDHFR (setting [3]).
Take `CCc1nc(N)nc(N)c1-c1ccc(Cl)cc1` [pyrimethamine, reference compound]: the IC50 at T. cruzi DHFR (tcDHFR) is 1000 nM.
